Results reported in patent publication US20240269139A1, “COMPOUNDS FOR TARGETED PROTEIN DEGRADATION OF KINASES” (DANA-FARBER CANCER INSTITUTE, INC., priority 2020, published 2024).
Where two headings read alike, the source gives them in different places.

Columns and labels:
Format in all cases: cell-based
[1] = target: T1, protein kinases (human kinome) (Homo sapiens, UniProt O14757); details: for logFC: CHEK1 (O14757)
T1 sequence (O14757 1-476): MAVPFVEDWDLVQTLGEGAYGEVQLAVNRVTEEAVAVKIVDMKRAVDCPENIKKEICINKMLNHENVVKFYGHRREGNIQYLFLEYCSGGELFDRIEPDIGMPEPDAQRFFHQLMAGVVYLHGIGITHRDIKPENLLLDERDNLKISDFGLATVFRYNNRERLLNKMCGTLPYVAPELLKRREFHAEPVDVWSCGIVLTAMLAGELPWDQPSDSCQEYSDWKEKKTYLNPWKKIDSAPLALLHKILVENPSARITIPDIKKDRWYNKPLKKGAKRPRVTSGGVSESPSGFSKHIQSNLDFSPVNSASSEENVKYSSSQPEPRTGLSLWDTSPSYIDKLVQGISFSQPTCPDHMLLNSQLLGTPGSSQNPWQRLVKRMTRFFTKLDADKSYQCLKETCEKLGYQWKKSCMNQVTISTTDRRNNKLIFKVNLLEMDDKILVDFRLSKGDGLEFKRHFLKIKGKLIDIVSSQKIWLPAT

[2] = target: protein kinases (human kinome) (Homo sapiens, UniProt O00311); details: for logFC: CDC7 (O00311-1)
Sequence of protein kinases (human kinome) (Homo sapiens, UniProt O00311) (O00311 whole entry): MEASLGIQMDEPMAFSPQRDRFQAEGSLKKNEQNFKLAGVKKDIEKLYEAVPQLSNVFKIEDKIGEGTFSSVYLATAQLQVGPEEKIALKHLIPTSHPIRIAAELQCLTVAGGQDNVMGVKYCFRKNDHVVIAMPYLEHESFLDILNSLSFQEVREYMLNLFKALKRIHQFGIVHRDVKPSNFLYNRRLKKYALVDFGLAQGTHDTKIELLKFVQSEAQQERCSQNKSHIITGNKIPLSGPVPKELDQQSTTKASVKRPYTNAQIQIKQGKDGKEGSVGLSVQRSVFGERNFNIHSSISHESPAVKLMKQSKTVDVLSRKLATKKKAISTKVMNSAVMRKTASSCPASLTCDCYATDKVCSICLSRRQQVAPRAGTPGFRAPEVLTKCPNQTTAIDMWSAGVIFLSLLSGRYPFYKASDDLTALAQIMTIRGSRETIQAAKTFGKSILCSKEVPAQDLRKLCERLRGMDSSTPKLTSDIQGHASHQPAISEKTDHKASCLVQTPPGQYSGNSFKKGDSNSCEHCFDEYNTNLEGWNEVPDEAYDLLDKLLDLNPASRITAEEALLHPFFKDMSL

[3] = target: T2, protein kinases (human kinome) (Homo sapiens, UniProt Q86YV5); details: PRAG1 Q86YV5
T2 sequence (Q86YV5 1-1406): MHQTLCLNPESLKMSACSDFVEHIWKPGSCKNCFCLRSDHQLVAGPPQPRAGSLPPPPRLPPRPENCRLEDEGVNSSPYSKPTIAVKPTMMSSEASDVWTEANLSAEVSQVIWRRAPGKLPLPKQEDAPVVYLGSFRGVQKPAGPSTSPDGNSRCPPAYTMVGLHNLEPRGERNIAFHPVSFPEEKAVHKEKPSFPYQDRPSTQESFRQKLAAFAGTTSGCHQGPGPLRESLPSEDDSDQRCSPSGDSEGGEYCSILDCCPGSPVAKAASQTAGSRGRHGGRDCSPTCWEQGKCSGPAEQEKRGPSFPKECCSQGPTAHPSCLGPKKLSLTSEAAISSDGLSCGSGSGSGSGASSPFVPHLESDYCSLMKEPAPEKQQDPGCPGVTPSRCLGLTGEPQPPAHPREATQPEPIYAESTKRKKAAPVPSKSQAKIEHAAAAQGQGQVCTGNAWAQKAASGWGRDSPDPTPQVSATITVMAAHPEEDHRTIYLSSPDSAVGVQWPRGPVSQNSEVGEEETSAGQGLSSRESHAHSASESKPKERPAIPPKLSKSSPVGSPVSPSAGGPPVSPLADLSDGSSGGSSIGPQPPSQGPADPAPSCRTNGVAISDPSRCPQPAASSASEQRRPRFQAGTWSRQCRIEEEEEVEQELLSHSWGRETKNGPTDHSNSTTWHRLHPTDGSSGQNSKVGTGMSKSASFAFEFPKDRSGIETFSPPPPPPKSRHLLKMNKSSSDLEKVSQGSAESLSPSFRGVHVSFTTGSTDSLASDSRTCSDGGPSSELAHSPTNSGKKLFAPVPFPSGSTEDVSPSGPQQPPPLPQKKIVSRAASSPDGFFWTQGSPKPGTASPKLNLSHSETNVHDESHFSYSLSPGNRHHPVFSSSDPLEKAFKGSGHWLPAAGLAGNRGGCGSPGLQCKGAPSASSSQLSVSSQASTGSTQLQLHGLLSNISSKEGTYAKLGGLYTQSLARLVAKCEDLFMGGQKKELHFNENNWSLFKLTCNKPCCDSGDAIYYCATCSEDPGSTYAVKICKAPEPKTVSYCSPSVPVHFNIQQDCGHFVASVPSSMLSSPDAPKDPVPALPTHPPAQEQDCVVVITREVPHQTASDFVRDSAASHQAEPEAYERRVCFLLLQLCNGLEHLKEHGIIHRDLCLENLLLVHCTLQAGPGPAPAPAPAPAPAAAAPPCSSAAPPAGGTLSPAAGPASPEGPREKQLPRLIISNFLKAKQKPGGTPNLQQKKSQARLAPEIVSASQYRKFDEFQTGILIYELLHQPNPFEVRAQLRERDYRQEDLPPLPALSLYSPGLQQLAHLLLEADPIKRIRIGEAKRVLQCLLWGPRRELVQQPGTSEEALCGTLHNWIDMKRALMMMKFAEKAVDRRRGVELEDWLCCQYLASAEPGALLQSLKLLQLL

[4] = target: protein kinases (human kinome) (Homo sapiens, UniProt P48730); details: for logFC CSNK1D: Accession P48730-1, direction down
Sequence of protein kinases (human kinome) (Homo sapiens, UniProt P48730) (P48730 whole entry): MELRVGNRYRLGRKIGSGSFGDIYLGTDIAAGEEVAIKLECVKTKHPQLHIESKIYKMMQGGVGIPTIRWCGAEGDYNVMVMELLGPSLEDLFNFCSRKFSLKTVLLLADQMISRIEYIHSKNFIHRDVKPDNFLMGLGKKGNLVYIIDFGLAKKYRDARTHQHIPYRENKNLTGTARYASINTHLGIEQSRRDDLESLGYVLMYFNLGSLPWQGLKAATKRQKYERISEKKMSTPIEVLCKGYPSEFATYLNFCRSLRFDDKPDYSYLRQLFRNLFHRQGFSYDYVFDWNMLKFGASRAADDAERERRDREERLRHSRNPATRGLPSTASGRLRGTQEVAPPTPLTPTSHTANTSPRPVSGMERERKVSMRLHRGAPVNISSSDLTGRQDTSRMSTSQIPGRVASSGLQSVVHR

[5] = target: protein kinases (human kinome) (Homo sapiens, UniProt P36894); details: for logFC: BMPR1A (P36894)
Sequence of protein kinases (human kinome) (Homo sapiens, UniProt P36894) (P36894 24-532): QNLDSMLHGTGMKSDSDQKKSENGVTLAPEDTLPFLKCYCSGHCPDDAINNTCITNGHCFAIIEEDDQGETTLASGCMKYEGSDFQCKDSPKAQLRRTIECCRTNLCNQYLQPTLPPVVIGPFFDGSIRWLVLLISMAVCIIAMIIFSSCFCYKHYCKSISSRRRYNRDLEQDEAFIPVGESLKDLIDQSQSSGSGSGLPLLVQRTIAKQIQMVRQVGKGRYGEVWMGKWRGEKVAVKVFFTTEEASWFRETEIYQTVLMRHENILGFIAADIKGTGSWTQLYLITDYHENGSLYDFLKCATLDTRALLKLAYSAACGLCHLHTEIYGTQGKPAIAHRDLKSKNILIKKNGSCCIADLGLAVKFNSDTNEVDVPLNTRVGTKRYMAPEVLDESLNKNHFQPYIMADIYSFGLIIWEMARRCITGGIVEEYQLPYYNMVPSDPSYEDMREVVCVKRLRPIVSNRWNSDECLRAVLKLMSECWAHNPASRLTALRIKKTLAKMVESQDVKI

[6] = target: protein kinases (human kinome) (Homo sapiens, UniProt Q00536)
Sequence of protein kinases (human kinome) (Homo sapiens, UniProt Q00536) (Q00536 whole entry): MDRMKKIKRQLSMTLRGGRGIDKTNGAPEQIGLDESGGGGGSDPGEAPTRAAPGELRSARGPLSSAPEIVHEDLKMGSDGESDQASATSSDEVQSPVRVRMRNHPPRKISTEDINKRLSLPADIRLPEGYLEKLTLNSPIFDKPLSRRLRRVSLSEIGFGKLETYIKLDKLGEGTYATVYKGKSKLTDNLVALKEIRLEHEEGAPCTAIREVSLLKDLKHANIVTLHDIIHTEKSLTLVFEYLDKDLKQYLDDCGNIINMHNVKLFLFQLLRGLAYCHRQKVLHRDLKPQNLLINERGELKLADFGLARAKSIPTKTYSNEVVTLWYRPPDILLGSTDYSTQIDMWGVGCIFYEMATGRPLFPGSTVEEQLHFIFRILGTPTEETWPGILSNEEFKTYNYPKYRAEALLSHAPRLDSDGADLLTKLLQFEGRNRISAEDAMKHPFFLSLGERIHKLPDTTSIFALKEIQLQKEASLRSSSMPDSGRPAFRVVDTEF

With `Cc1ncsc1-c1ccc([C@H](C)NC(=O)[C@@H]2C[C@@H](O)CN2C(=O)[C@@H](NC(=O)CCOCCOCCN2CCN(c3ccc(Nc4ncc(Cl)c(Nc5ccccc5S(=O)(=O)C(C)C)n4)cc3)CC2)C(C)(C)C)cc1` [FMF.06.098.1] the logFC ([1]; experiment wp108) was −0.3674, the logFC ([1]; experiment wp114) was −0.4124 and the “logFC of CHEK1 (O14757)” value ([1]; Experiment wp108) was −0.3674. For the same molecule, the “logFC of CHEK1 (O14757)” value ([1]; Experiment wp114) was −0.4124, the logFC ([2]; experiment wp108) was −0.3323 and the logFC ([2]; experiment wp131) was −0.4109. The “logFC of CDC7 (O00311-1)” value ([2]; Experiment wp108) was −0.3323 and the “logFC of CDC7 (O00311-1)” value ([2]; experiment wp131) was −0.4109.
With `O=C1CCC(N2C(=O)c3cccc(NCCCCCCCCN4CCC(NC(=O)c5[nH]ncc5NC(=O)c5c(Cl)cccc5Cl)CC4)c3C2=O)C(=O)N1` (stereo not shown) [MFH.5.126.1] the logFC ([1]; experiment wp076) was −0.3606 and the “logFC of CHEK1 (O14757)” value ([1]; experiment wp076) was −0.3606.
`CC(C)S(=O)(=O)c1ccccc1Nc1nc(Nc2ccc(N3CCN(CCOCCOCCNC(=O)CNc4cccc5c4C(=O)N(C4CCC(=O)NC4=O)C5=O)CC3)cc2)ncc1Cl` (stereo not shown) [TL12.186] was tested, and the logFC ([3]; experiment wp131) was −0.4243, the “logFC PRAG1” value ([3]; experiment wp131) was −0.4243 and the logFC ([3]; experiment wp137) was −0.3459. For the same molecule, the “logFC PRAG1” value ([3]; experiment wp137) was −0.3459, the “logFC CSNK1D” value ([4]; experiment wp131) was −0.3551 and the “logFC of CSNK1D (P48730-1)” value ([4]; experiment wp131) was −0.3551. The logFC ([5]; experiment wp131) was −0.8334, the logFC ([5]; experiment wp137) was −0.6566 and the “logFC of BMPR1A (P36894)” value ([5]; experiment wp131) was −0.8334. The “logFC of BMPR1A (P36894)” value ([5]; experiment wp137) was −0.6566.
In the case of `Cc1cnc(Nc2ccc(N3CCN(CCCCCCC(=O)N[C@H](C(=O)N4C[C@H](O)C[C@H]4C(=O)N[C@@H](C)c4ccc(-c5scnc5C)cc4)C(C)(C)C)CC3)cc2)nc1Nc1cccc(S(=O)(=O)NC(C)(C)C)c1` [JWG.123], the “logFC CDK16 (Q00536-1)” value ([6]; Experiment wp195) is reported as −0.5026 and the “logFC of CDK16 (Q00536-1)” value ([6]; Experiment wp195) is reported as −0.5026.
For `CC(C)S(=O)(=O)c1ccccc1Nc1nc(Nc2ccc(N3CCN(CCOCCNC(=O)CNc4cccc5c4C(=O)N(C4CCC(=O)NC4=O)C5=O)CC3)cc2)ncc1Cl` (stereo not shown) [SK.3.91], the logFC ([3]; experiment wp107) was −0.3692, the “logFC PRAG1” value ([3]; experiment wp107) was −0.3692 and the logFC ([3]; experiment wp133, 2 hr) was −0.3667. For the same molecule, the “logFC PRAG1” value ([3]; experiment wp133, 2 hr) was −0.3667, the logFC ([3]; experiment wp133, 4 hr) was −0.4352 and the “logFC PRAG1” value ([3]; experiment wp133, 4 hr) was −0.4352. The “logFC CDK16 (Q00536-1)” value ([6]; Experiment wp172) was −0.8169, the “logFC of CDK16 (Q00536-1)” value ([6]; Experiment wp172) was −0.8169 and the “logFC CSNK1D” value ([4]; experiment wp133, 4 hr) was −0.4585. The “logFC of CSNK1D (P48730-1)” value ([4]; experiment wp133, 4 hr) was −0.4585, the logFC ([5]; experiment wp105) was −0.4077 and the logFC ([5]; experiment wp107) was −1.103. The logFC ([5]; experiment wp133, 4 hr) was −0.8007, the “logFC of BMPR1A (P36894)” value ([5]; Experiment wp107) was −1.103 and the “logFC of BMPR1A (P36894)” value ([5]; experiment wp105) was −0.4077. The “logFC of BMPR1A (P36894)” value ([5]; experiment wp133, 4 hr) was −0.8007, the logFC ([2]; experiment wp133, 4 hr) was −0.3652 and the “logFC of CDC7 (O00311-1)” value ([2]; experiment wp133, 4 hr) was −0.3652.
